Data on one molecule can be found in patent US20220095619A1, “METHOD OF CONTROLLING WEEDS IN A CULTIVATION AREA OF DETERMINATE SOYBEAN” (SUMITOMO CHEMICAL COMPANY, LIMITED, priority 2019, published 2022).

In series [1] the test system is kochia. Briefly: Example 3 pot test, pre-emergence soil spray: herbicidal effect on kochia. Format: in vivo, Kochia scoparia. The conditions noted are these: 25 and 50 g per hectare, 18 days after treatment, 100 = complete death. The source says:
(§1) The evaluation of the herbicidal effect and crop injury is classified into 0 to 100, where the numeral “0” indicates no or little difference in the state of germination or growth of weeds or soybean under test at the time of examination as comparison with untreated weeds or soybean, respectively and the numeral “100” indicates the complete death of weeds or soybean under test or the complete inhibition of their germination or growth of weeds or soybean under test.
(§2) Four varieties of determinate soybean, four varieties of indeterminate soybean, Palmer amaranth, kochia and large crabgrass were sown to a pot filled with a soil. On the next day, a trifludimoxazin spray liquid. (prepared by diluting an emuslfiable concentrate of trifludimoxazin with water) was uniformly sprayed onto the pot at the amount of 200 L, per hectare so that the application rate of trifludimoxazin might be 25 and 50 g per hectare. 18 days after treatment, herbicidal effects on weeds and injury on soybeans were investigated. As a result, the herbicidal effect on each of the three weeds was 100.

Series [2] deals with Harosoy/Indeterminate soybean. Briefly: Example 3 pot test, pre-emergence soil spray: crop injury on soybean variety Harosoy. Format: in vivo, Glycine max. The conditions noted are these: 18 days after treatment.
Source text: as §1, §2

Series [3] has as its system large crabgrass. Nature of the series: Example 3 pot test, pre-emergence soil spray: herbicidal effect on large crabgrass. Format: in vivo, Digitaria sanguinalis. The conditions noted are these: 25 and 50 g per hectare, 18 days after treatment, 100 = complete death.
Source text: as §1, §2

In series [4] the test system is palmer amaranth, waterhemp, kochia, common ragweed and marestail. Briefly: Example 1 pot test, spray two days after sowing: herbicidal effect on weeds. Format: in vivo. The note with it: 25 or 50 g per hectare; applied two days after sowing; 21 days after the treatment.
Source text: as §1
(§3) A pot is filled with a soil, and the determinate soybean, indeterminate soybean, semi-determinate soybean, palmer amaranth, waterhemp, kochia, common ragweed and marestail are sown thereto. Two days later, trifludimoxazin spray liquid (prepared by diluting trifludimoxazin formulation an aqueous suspension concentrate containing 500 g/L of trifludimoxazin) with water) is uniformly applied onto the pot using a sprayer at the amount of 200 L per hectare so that the application rate of trifludimoxazin may be 25 or 50 g per hectare. 21 days after the treatment, herbicidal effects and injuries on various soybeans are investigated.

The test system of series [5] is determinate soybean, indeterminate soybean, and semi-determinate soybean. Briefly: Example 2 pot test, spray one day before soybean sowing: injury on soybeans. Format: in vivo, Glycine max. The conditions noted are these: 25 or 50 g per hectare; applied one day before sowing soybeans; 21 days after sowing soybeans.
Source text: as §1
(§4) A pot is filled with a soil, and then Palmer amaranth, waterhemp, kochia, common ragweed and marestail are sown thereto. On the same day, trifludimoxazin spray liquid (prepared by diluting trifludimoxazin formulation (an aqueous suspension concentrate containing 500 g/L of trifludimoxazin) with water) is uniformly applied onto the pot using a sprayer at the amount of 200 L per hectare so that the application rate of trifludimoxazin may be 25 or 50 g per hectare. On the next day, determinate soybean, indeterminate soybean, and semi-determinate soybean are sown. 21 days after sowing soybeans, herbicidal effects and injuries on various soybeans are investigated.

The subject of series [6] is Williams 82/Indeterminate soybean. Nature of the series: Example 3 pot test, pre-emergence soil spray: crop injury on soybean variety Williams 82. Format: in vivo, Glycine max. The conditions noted are these: 18 days after treatment.
Source text: as §1, §2

Series [7] relates to Sachiyutaka/Determinate soybean. Briefly: Example 3 pot test, pre-emergence soil spray: crop injury on soybean variety Sachiyutaka. The note with it: 18 days after treatment. Format: in vivo, Glycine max.
Source text: as §1, §2

The test system of series [8] is Wild soybean/Indeterminate. Nature of the series: Example 3 pot test, pre-emergence soil spray: crop injury on wild soybean. Format: in vivo, Glycine soja. The conditions noted are these: 18 days after treatment.
Source text: as §1, §2

For series [9], the system named is Kurosengoku/Indeterminate soybean. Briefly: Example 3 pot test, pre-emergence soil spray: crop injury on soybean variety Kurosengoku. The conditions noted are these: 18 days after treatment. Format: in vivo, Glycine max.
Source text: as §1, §2

The test system of series [10] is determinate soybean, indeterminate soybean, semi-determinate soybean. Briefly: Example 1 pot test, spray two days after sowing: injury on soybeans. Format: in vivo, Glycine max. The conditions noted are these: 25 or 50 g per hectare; applied two days after sowing; 21 days after the treatment.
Source text: as §1, §3

Series [11] has as its system Toyomusume/Determinate soybean. Briefly: Example 3 pot test, pre-emergence soil spray: crop injury on soybean variety Toyomusume. Format: in vivo, Glycine max. The note with it: 18 days after treatment.
Source text: as §1, §2

For series [12], the system named is Tambaguro/Determinate soybean. Nature of the series: Example 3 pot test, pre-emergence soil spray: crop injury on soybean variety Tambaguro. Format: in vivo, Glycine max. The conditions noted are these: 18 days after treatment, 0 = no or little difference from untreated, 100 = complete death.
Source text: as §1, §2

Series [13] deals with palmer amaranth, waterhemp, kochia, common ragweed and marestail. Briefly: Example 2 pot test, spray on day of weed sowing, before soybean sowing: herbicidal effect on weeds. Format: in vivo. The conditions noted are these: 25 or 50 g per hectare; applied on day of weed sowing; 21 days after sowing soybeans.
Source text: as §1, §4

Series [14] concerns Fukunari/Determinate soybean. Nature of the series: Example 3 pot test, pre-emergence soil spray: crop injury on soybean variety Fukunari. Format: in vivo, Glycine max. The note with it: 18 days after treatment.
Source text: as §1, §2

The subject of series [15] is Palmer amaranth. Briefly: Example 3 pot test, pre-emergence soil spray: herbicidal effect on Palmer amaranth. Format: in vivo, Amaranthus palmeri. The note with it: 25 and 50 g per hectare, 18 days after treatment, 100 = complete death.
Source text: as §1, §2

In the case of `C#CCN1C(=O)C(F)(F)Oc2cc(F)c(-n3c(=O)n(C)c(=S)n(C)c3=O)cc21` [trifludimoxazin], the “herbicidal effect (0 to 100 scale)” value in series [1], in series [3] and in [15] was 100 in each case. Further, the “injury on soybeans (0 to 100 scale)” value in series [2] (25 g/hectare) is given as 30; in series [2] (50 g/hectare), 50; in series [6] (25 g/hectare), 40; in [6] (50 g/hectare), 80; in series [7] (25 g/hectare), 0; in series [7] (50 g/hectare), 0. The “injury on soybeans (0 to 100 scale)” value is on record as 100 in [8] (25 g/hectare); 100 in series [8] (50 g/hectare); 30 in [9] (25 g/hectare); 60 in [9] (50 g/hectare); 0 in [11] (25 g/hectare); 5 in series [11] (50 g/hectare). The “injury on soybeans (0 to 100 scale)” value in [12] (25 g/hectare) is listed as 0; in series [12] (50 g/hectare), 10; in series [14] (25 g/hectare) it was 0; in [14] (50 g/hectare), 0. Further, the entries for the “herbicidal effects on weeds” value in [4] and in series [13] were “High herbicidal effects on all weeds” and “High effects on all weeds”, respectively. For the same molecule, the “injuries on various soybeans (comparison of growth habits)” value was “injury on determinate soybean is less than those on indeterminate soybean and semi-determinate soybean” in series [5]; “injury on determinate soybean is less than those on indeterminate soybean and semi-determinate soybean” in series [10].
